According to ChEMBL document CHEMBL3885861, “Open TG-GATES”:

Species on record: Rattus norvegicus
Assay: Open TG-GATES - Regimen: Single
Assay type: toxicity, organism-based, Sprague-Dawley
Parameters: regimen Single, gender Male, age 6 weeks
Conditions: in vivo, po, 0 mg/kg, route gavage, dose level Control; for APTT / Bas / Eos / Fbg / Hb / Ht / Lym / MCH / MCHC / MCV / Mono / Neu / PT / Plat / RBC / Ret / WBC: tissue Blood; for KIDNEY_L / KIDNEY_R / KIDNEY_TOTAL: tissue Kidney; for LIVER: tissue Liver; for A/G / ALP / ALT / AST / BUN / CRE / Ca / Cl / DBIL / GLC / IP / K / LDH / Na / PL / RALB / TBIL / TC / TG / TP / gamma-GTP: tissue Plasma

SMILES: CCCCNC(=O)NS(=O)(=O)c1ccc(C)cc1 [TOLBUTAMIDE]
- TERMINAL_BW (3 h): 203.9 g
- APTT (3 h): 16.5 s
- Bas (3 h): 0%
- Eos (3 h): 0.8%
- Fbg (3 h): 286.6 mg/dL
- Hb (3 h): 13.7 g/dL
- Ht (3 h): 42.1%
- Lym (3 h): 78.2%
- MCH (3 h): 21 pg
- MCHC (3 h): 32.5%
- MCV (3 h): 64.8 fL
- Mono (3 h): 2.8%
- Neu (3 h): 18%
- PT (3 h): 12.9 s
- Plat (3 h): 128.5 x10_4/uL
- RBC (3 h): 649.4 x10_4/ul
- Ret (3 h): 8.5%
- WBC (3 h): 86 x10_2/uL
- KIDNEY_L (3 h): 0.9 g
- KIDNEY_R (3 h): 0.9 g
- KIDNEY_TOTAL (3 h): 1.8 g
- LIVER (3 h): 9.1 g
- A/G (3 h): 0.9
- ALP (3 h): 1445.2 IU/L
- ALT (3 h): 43.8 IU/L
- AST (3 h): 73.6 IU/L
- BUN (3 h): 9.8 mg/dL
- CRE (3 h): 0.2 mg/dL
- Ca (3 h): 11 mg/dL
- Cl (3 h): 106.8 meq/L
- DBIL (3 h): 0.006 mg/dL
- GLC (3 h): 175 mg/dL
- IP (3 h): 8.9 mg/dL
- K (3 h): 4.1 meq/L
- LDH (3 h): 52.4 IU/L
- Na (3 h): 141.6 meq/L
- PL (3 h): 145 mg/dL
- RALB (3 h): 2.5 g/dL
- TBIL (3 h): 0.078 mg/dL
- TC (3 h): 80.8 mg/dL
- TG (3 h): 54.6 mg/dL
- TP (3 h): 5.3 g/dL
- gamma-GTP (3 h): 1 IU/L
- TERMINAL_BW (6 h): 204 g
- APTT (6 h): 18.7 s
- Bas (6 h): 0.2%
- Eos (6 h): 1%
- Fbg (6 h): 279.6 mg/dL
- Hb (6 h): 13.6 g/dL
- Ht (6 h): 41.9%
- Lym (6 h): 80.4%
- MCH (6 h): 20.6 pg
- MCHC (6 h): 32.5%
- MCV (6 h): 63.6 fL
- Mono (6 h): 2%
- Neu (6 h): 15.8%
- PT (6 h): 13.1 s
- Plat (6 h): 131.1 x10_4/uL
- RBC (6 h): 659.4 x10_4/ul
- Ret (6 h): 8.1%
- WBC (6 h): 84.4 x10_2/uL
- KIDNEY_L (6 h): 0.9 g
- KIDNEY_R (6 h): 0.9 g
- KIDNEY_TOTAL (6 h): 1.9 g
- LIVER (6 h): 8.8 g
- A/G (6 h): 0.9
- ALP (6 h): 1197.4 IU/L
- ALT (6 h): 36.6 IU/L
- AST (6 h): 66.4 IU/L
- BUN (6 h): 8.4 mg/dL
- CRE (6 h): 0.2 mg/dL
- Ca (6 h): 10.7 mg/dL
- Cl (6 h): 105.6 meq/L
- DBIL (6 h): 0.01 mg/dL
- GLC (6 h): 172.6 mg/dL
- IP (6 h): 9.5 mg/dL
- K (6 h): 4.1 meq/L
- LDH (6 h): 49 IU/L
- Na (6 h): 141.2 meq/L
- PL (6 h): 138.4 mg/dL
- RALB (6 h): 2.5 g/dL
- TBIL (6 h): 0.078 mg/dL
- TC (6 h): 78.8 mg/dL
- TG (6 h): 46.6 mg/dL
- TP (6 h): 5.2 g/dL
- gamma-GTP (6 h): 1 IU/L
- TERMINAL_BW (9 h): 202.2 g
- APTT (9 h): 15.8 s
- Bas (9 h): 0.2%
- Eos (9 h): 1.2%
- Fbg (9 h): 284 mg/dL
- Hb (9 h): 13.3 g/dL
- Ht (9 h): 40.1%
- Lym (9 h): 75.6%
- MCH (9 h): 21 pg
- MCHC (9 h): 33%
- MCV (9 h): 63.6 fL
- Mono (9 h): 2%
- Neu (9 h): 20.8%
- PT (9 h): 13.3 s
- Plat (9 h): 121 x10_4/uL
- RBC (9 h): 633 x10_4/ul
- Ret (9 h): 8.3%
- WBC (9 h): 72.5 x10_2/uL
- KIDNEY_L (9 h): 0.9 g
- KIDNEY_R (9 h): 1 g
- KIDNEY_TOTAL (9 h): 1.9 g
- LIVER (9 h): 7.9 g
- A/G (9 h): 0.9
- ALP (9 h): 1161.6 IU/L
- ALT (9 h): 38.6 IU/L
- AST (9 h): 73.8 IU/L
- BUN (9 h): 7.6 mg/dL
- CRE (9 h): 0.1 mg/dL
- Ca (9 h): 10.7 mg/dL
- Cl (9 h): 106.2 meq/L
- DBIL (9 h): 0 mg/dL
- GLC (9 h): 166.8 mg/dL
- IP (9 h): 9.4 mg/dL
- K (9 h): 4.3 meq/L
- LDH (9 h): 60.8 IU/L
- Na (9 h): 141 meq/L
- PL (9 h): 132.8 mg/dL
- RALB (9 h): 2.5 g/dL
- TBIL (9 h): 0.078 mg/dL
- TC (9 h): 78.4 mg/dL
- TG (9 h): 33.2 mg/dL
- TP (9 h): 5.2 g/dL
- gamma-GTP (9 h): 1 IU/L
- TERMINAL_BW (24 h): 220 g
- APTT (24 h): 17.4 s
- Bas (24 h): 0.2%
- Eos (24 h): 1.2%
- Fbg (24 h): 296 mg/dL
- Hb (24 h): 13.3 g/dL
- Ht (24 h): 40.5%
- Lym (24 h): 74.2%
- MCH (24 h): 21.3 pg
- MCHC (24 h): 32.9%
- MCV (24 h): 64.9 fL
- Mono (24 h): 3%
- Neu (24 h): 20.4%
- PT (24 h): 12.9 s
- Plat (24 h): 123.6 x10_4/uL
- RBC (24 h): 624.8 x10_4/ul
- Ret (24 h): 7.7%
- WBC (24 h): 89 x10_2/uL
- KIDNEY_L (24 h): 1 g
- KIDNEY_R (24 h): 1 g
- KIDNEY_TOTAL (24 h): 2 g
- LIVER (24 h): 10.3 g
- A/G (24 h): 0.9
- ALP (24 h): 1544.6 IU/L
- ALT (24 h): 44.6 IU/L
- AST (24 h): 67 IU/L
- BUN (24 h): 15.2 mg/dL
- CRE (24 h): 0.2 mg/dL
- Ca (24 h): 11.2 mg/dL
- Cl (24 h): 104.8 meq/L
- DBIL (24 h): 0.01 mg/dL
- GLC (24 h): 171.2 mg/dL
- IP (24 h): 8.3 mg/dL
- K (24 h): 4 meq/L
- LDH (24 h): 78 IU/L
- Na (24 h): 141.6 meq/L
- PL (24 h): 162.4 mg/dL
- RALB (24 h): 2.6 g/dL
- TBIL (24 h): 0.066 mg/dL
- TC (24 h): 89.8 mg/dL
- TG (24 h): 85.4 mg/dL
- TP (24 h): 5.6 g/dL
- gamma-GTP (24 h): 1.2 IU/L
